Reference: patent EP4610269A1, “UROKINASE PLASMINOGEN ACTIVATOR SURFACE RECEPTOR (UPAR) LIGANDS FOR DIAGNOSTIC OR THERAPEUTIC USE” (3B Pharmaceuticals GmbH, priority 2024, dated 2025)
Each block holds one compound with its values, some of them ahead of it. Where a SMILES comes first, the peptide text is derived from it. Bridges are numbered along the chain shown (N, C = ends). [ ]: non-standard residue; d: D form. The star is where a group is joined. DOTA = O=C(O)CN1CCN(CC(=O)O)CCN(CC(=O)*)CCN(CC(=O)O)CC1; Pro(cis-4-F) = O=C(O)[C@@H]1C[C@H](F)CN1; Pro(4R-NH2) = N[C@H]1CN[C@H](C(=O)O)C1; Hyp = O=C(O)[C@@H]1C[C@@H](O)CN1; hArg = N=C(N)NCCCC[C@H](N)C(=O)O; 3Pal = N[C@@H](Cc1cccnc1)C(=O)O; Pentanoyl(4-Me) = CC(C)CCC(=O)*; Cit = NC(=O)NCCC[C@H](N)C(=O)O; Propanoyl(3-OEt) = CCOCCC(=O)*; αMeL = CC(C)C[C@](C)(N)C(=O)O; Butoxycarbonyl = CCCCOC(=O)*; NMeK = CN[C@@H](CCCCN)C(=O)O; Nva = CCC[C@H](N)C(=O)O; Pentanoyl = CCCCC(=O)*; Sar = CNCC(=O)O

Columns and labels:
[1] = target: T1, uPAR-expressing HEC-265 human endometrial adenocarcinoma cells (Homo sapiens, UniProt Q03405); test: Competitive FACS binding assay; conditions: pIC50 category of FACS binding
T1 construct: Cell surface uPAR-expressing HEC-265 human endometrial adenocarcinoma cells; host or cells: HEC-265
T1 sequence (Q03405 23-335): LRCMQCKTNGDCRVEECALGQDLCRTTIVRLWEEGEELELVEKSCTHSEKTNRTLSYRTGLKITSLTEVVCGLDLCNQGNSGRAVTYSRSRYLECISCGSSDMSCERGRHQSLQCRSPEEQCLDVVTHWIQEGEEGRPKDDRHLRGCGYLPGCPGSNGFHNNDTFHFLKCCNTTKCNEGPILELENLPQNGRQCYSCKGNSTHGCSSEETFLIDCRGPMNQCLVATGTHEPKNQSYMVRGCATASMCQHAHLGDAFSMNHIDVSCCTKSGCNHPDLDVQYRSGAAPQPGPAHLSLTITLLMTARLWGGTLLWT
Outline: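 HEC-265 cells incubated 1 h at 4 °C with 10 nM biotinylated uPAR peptide tracer plus increasing test compound, then stained with APC-streptavidin on ice. Median APC fluorescence by flow cytometry; 4PL fit gives pIC50.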

human uPAR (uPAR-Fc) = target: T2, human uPAR (uPAR-Fc) (Homo sapiens, UniProt Q03405); test: Surface plasmon resonance (SPR) assay, single cycle kinetics; assay type: binding; conditions: pKD category for uPAR SPR activity assay; uPAR-Fc on Protein A-Chip, 25°C; read-out: pKD CAT (converted)
T2 construct: comprising amino acids Leu23-Arg303 according to UniProt entry Q03405.1; purchased R&D Systems 10378-UK-100
T2 sequence (Q03405 23-303): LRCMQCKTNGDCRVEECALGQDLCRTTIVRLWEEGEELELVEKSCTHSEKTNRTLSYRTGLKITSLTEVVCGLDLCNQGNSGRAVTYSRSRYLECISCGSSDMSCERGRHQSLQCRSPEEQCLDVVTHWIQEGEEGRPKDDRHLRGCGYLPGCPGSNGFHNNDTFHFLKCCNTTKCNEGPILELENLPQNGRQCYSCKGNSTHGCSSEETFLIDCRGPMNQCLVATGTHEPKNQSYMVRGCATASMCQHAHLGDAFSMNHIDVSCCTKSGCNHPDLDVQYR
Outline: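 uPAR-Fc (Leu23-Arg303 extracellular domains, human IgG1 Fc) captured on Protein A chip to ~2000 RU; single-cycle kinetics at 25°C in HEPES running buffer pH 7.4 with 0.1% DMSO. KD from double-referenced sensorgrams fitted to 1:1 Langmuir model, reported as pKD.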

IC50 [1]: 12.6 to 31.6 nM | Kd (human uPAR (uPAR-Fc)): 1.58 to 10 nM
Structure (SMILES): CCCCC(=O)N[C@H]1CSSC[C@@H](C(N)=O)NC(=O)[C@](C)(CC(C)C)NC(=O)[C@H]([C@@H](C)CC)NC(=O)[C@@H]2C[C@@H](O)CN2C(=O)[C@@H]2CCCN2C(=O)[C@H](Cc2ccccc2)NC(=O)[C@H](Cc2ccc(O)cc2)NC(=O)[C@H](CCC(N)=O)NC(=O)[C@H](CCCNC(=N)N)NC1=O [UPAR-156, Pent-[Cys-Arg-Gln-Tyr-Phe-Pro-Hyp-Ile-Aml-Cys]-NH2] (Pentanoyl-CRQYFP[Hyp]I[αMeL]C-NH2; disulfide 1-10)

IC50 [1]: ≤ 10 nM | Kd (human uPAR (uPAR-Fc)): < 1.58 nM
Structure (SMILES): CC[C@H](C)[C@@H]1NC(=O)[C@@H](C)NC(=O)[C@@H]2CCCN2C(=O)[C@H](Cc2ccccc2)NC(=O)[C@H](Cc2ccc(O)cc2)NC(=O)[C@H](CCCNC(=N)N)NC(=O)[C@H](CCCNC(N)=O)NC(=O)[C@@H](NC(=O)CCC(C)C)CSSC[C@@H](C(N)=O)NC(=O)[C@H](CC(C)C)NC1=O [UPAR-160, iHex-[Cys-Cit-Arg-Tyr-Phe-Pro-ala-Ile-Leu-Cys]-NH2] ({Pentanoyl(4-Me)}-C[Cit]RYFP[dA]ILC-NH2; disulfide 1-10)

IC50 [1]: ≤ 10 nM | Kd (human uPAR (uPAR-Fc)): 10 to 100 nM
Structure (SMILES): CCCCC(=O)N[C@H]1CSSC[C@@H](C(N)=O)NC(=O)[C@H](CCC)NC(=O)[C@H]([C@@H](C)CC)NC(=O)[C@@H](CC(=O)O)NC(=O)[C@@H]2CCCN2C(=O)[C@H](Cc2ccccc2)NC(=O)[C@H](Cc2ccc(O)cc2)NC(=O)[C@H](CCC(N)=O)NC(=O)[C@H](CCCNC(=N)N)NC1=O [UPAR-161, Pent-[Cys-Arg-Gln-Tyr-Phe-Pro-asp-Ile-Nva-Cys]-NH2] (Pentanoyl-CRQYFP[dD]I[Nva]C-NH2; disulfide 1-10)

IC50 [1]: ≤ 10 nM | Kd (human uPAR (uPAR-Fc)): < 1.58 nM
Structure (SMILES): CC[C@H](C)[C@@H]1NC(=O)[C@@H]2C[C@@H](O)CN2C(=O)[C@@H]2CCCN2C(=O)[C@H](Cc2ccccc2)NC(=O)[C@H](Cc2ccc(O)cc2)NC(=O)[C@H](CCC(N)=O)NC(=O)[C@H](CCCCNC(=N)N)NC(=O)[C@@H](NC(=O)CCC(C)C)CSSC[C@@H](C(N)=O)NC(=O)[C@H](CC(C)C)NC1=O [UPAR-167, iHex-[Cys-Har-Gln-Tyr-Phe-Pro-Hyp-Ile-Leu-Cys]-NH2] ({Pentanoyl(4-Me)}-C[hArg]QYFP[Hyp]ILC-NH2; disulfide 1-10)

IC50 [1]: 12.6 to 31.6 nM | Kd (human uPAR (uPAR-Fc)): 1.58 to 10 nM
Structure (SMILES): CCCCC(=O)N[C@H]1CSSC[C@@H](C(N)=O)NC(=O)[C@H](Cc2ccccc2)NC(=O)[C@H]([C@@H](C)CC)NC(=O)[C@@H]2C[C@@H](O)CN2C(=O)[C@@H]2CCCN2C(=O)[C@H](Cc2ccccc2)NC(=O)[C@H](Cc2ccc(O)cc2)NC(=O)[C@H](CCC(N)=O)NC(=O)[C@H](CCCNC(=N)N)NC1=O [UPAR-171, Pent-[Cys-Arg-Gln-Tyr-Phe-Pro-Hyp-Ile-Phe-Cys]-NH2] (Pentanoyl-CRQYFP[Hyp]IFC-NH2; disulfide 1-10)

IC50 [1]: ≤ 10 nM | Kd (human uPAR (uPAR-Fc)): 1.58 to 10 nM
Structure (SMILES): CCOCCC(=O)N[C@H]1CSSC[C@@H](C(N)=O)NC(=O)[C@H](CC(C)C)NC(=O)[C@H]([C@@H](C)CC)NC(=O)[C@@H](C)NC(=O)[C@@H]2CCCN2C(=O)[C@H](Cc2ccccc2)NC(=O)[C@H](Cc2ccc(O)cc2)NC(=O)[C@H](CCC(N)=O)NC(=O)[C@H](CCCNC(N)=O)NC1=O [UPAR-172, EtOPr-[Cys-Cit-Gln-Tyr-Phe-Pro-ala-Ile-Leu-Cys]-NH2] ({Propanoyl(3-OEt)}-C[Cit]QYFP[dA]ILC-NH2; disulfide 1-10)

Further lines, the compound ahead of its results:

Structure (SMILES): CC[C@H](C)[C@@H]1NC(=O)[C@@H](C)NC(=O)[C@@H]2CCCN2C(=O)[C@H](Cc2ccccc2)NC(=O)[C@H](Cc2ccc(O)cc2)NC(=O)[C@H](CCC(N)=O)NC(=O)[C@H](CCCCNC(=O)CN2CCN(CC(=O)O)CCN(CC(=O)O)CCN(CC(=O)O)CC2)NC(=O)[C@@H](NC(=O)CCC(C)C)CSSC[C@@H](C(N)=O)NC(=O)[C@H](CC(C)C)NC1=O [UPAR-157, iHex-[Cys-Lys(DOTA)-Gln-Tyr-Phe-Pro-ala-Ile-Leu-Cys]-NH2] ({Pentanoyl(4-Me)}-CK(DOTA)QYFP[dA]ILC-NH2; disulfide 1-10)
IC50 [1]: ≤ 10 nM | Kd (human uPAR (uPAR-Fc)): < 1.58 nM

Structure (SMILES): CC[C@H](C)[C@@H]1NC(=O)[C@@H](C)NC(=O)[C@@H]2CCCN2C(=O)[C@H](Cc2ccccc2)NC(=O)[C@H](C)NC(=O)[C@H](CCC(N)=O)NC(=O)[C@H](CCCNC(N)=O)NC(=O)[C@@H](NC(=O)CCC(C)C)CSSC[C@@H](C(N)=O)NC(=O)[C@H](CC(C)C)NC1=O [UPAR-159, iHex-[Cys-Cit-Gln-Ala-Phe-Pro-ala-Ile-Leu-Cys]-NH2] ({Pentanoyl(4-Me)}-C[Cit]QAFP[dA]ILC-NH2; disulfide 1-10)
IC50 [1]: ≥ 126 nM | Kd (human uPAR (uPAR-Fc)): > 100 nM

Structure (SMILES): CC[C@H](C)[C@@H]1NC(=O)[C@@H](C)NC(=O)[C@@H]2CCCN2C(=O)[C@H](Cc2ccccc2)NC(=O)[C@H](Cc2ccc(O)cc2)NC(=O)[C@H](CCCCNC(=O)CN2CCN(CC(=O)O)CCN(CC(=O)O)CCN(CC(=O)O)CC2)NC(=O)[C@H](CCCNC(=N)N)NC(=O)[C@@H](NC(=O)[C@H](CC(C)C)NC(C)=O)CSSC[C@@H](C(N)=O)NC(=O)[C@H](CC(C)C)NC1=O [UPAR-162, Ac-Leu-[Cys-Arg-Lys(DOTA)-Tyr-Phe-Pro-ala-Ile-Leu-Cys]-NH2] (Ac-LCRK(DOTA)YFP[dA]ILC-NH2; disulfide 2-11)
IC50 [1]: ≤ 10 nM | Kd (human uPAR (uPAR-Fc)): < 1.58 nM

Structure (SMILES): CC[C@H](C)[C@@H]1NC(=O)[C@@H](C)NC(=O)[C@@H]2C[C@@H](N)CN2C(=O)[C@H](Cc2ccccc2)NC(=O)[C@H](Cc2ccc(O)cc2)NC(=O)[C@H](CCC(N)=O)NC(=O)[C@H](CCCNC(N)=O)NC(=O)[C@@H](NC(=O)CCC(C)C)CSSC[C@@H](C(N)=O)NC(=O)[C@H](CC(C)C)NC1=O [UPAR-163, iHex-[Cys-Cit-Gln-Tyr-Phe-Tap-ala-Ile-Leu-Cys]-NH2] ({Pentanoyl(4-Me)}-C[Cit]QYF[Pro(4R-NH2)][dA]ILC-NH2; disulfide 1-10)
IC50 [1]: 12.6 to 31.6 nM | Kd (human uPAR (uPAR-Fc)): 1.58 to 10 nM

Structure (SMILES): CC(C)CCC(=O)N[C@H]1CSSC[C@@H](C(N)=O)NC(=O)[C@H](CC(C)C)NC(=O)[C@H](C)NC(=O)[C@@H](C)NC(=O)[C@@H]2CCCN2C(=O)[C@H](Cc2ccccc2)NC(=O)[C@H](Cc2ccc(O)cc2)NC(=O)[C@H](CCC(N)=O)NC(=O)[C@H](CCCNC(N)=O)NC1=O [UPAR-164, iHex-[Cys-Cit-Gln-Tyr-Phe-Pro-ala-Ala-Leu-Cys]-NH2] ({Pentanoyl(4-Me)}-C[Cit]QYFP[dA]ALC-NH2; disulfide 1-10)
IC50 [1]: ≥ 126 nM | Kd (human uPAR (uPAR-Fc)): > 100 nM

Structure (SMILES): CCCCOC(=O)N[C@H]1CSSC[C@@H](C(N)=O)NC(=O)[C@H](CCC)NC(=O)[C@H]([C@@H](C)CC)NC(=O)[C@@H]2C[C@@H](O)CN2C(=O)[C@@H]2C[C@H](F)CN2C(=O)[C@H](Cc2ccccc2)NC(=O)[C@H](Cc2cccnc2)NC(=O)[C@H](CCCCNC(=O)CN2CCN(CC(=O)O)CCN(CC(=O)O)CCN(CC(=O)O)CC2)NC(=O)[C@H]([C@@H](C)O)NC1=O [UPAR-165, Butoc-[Cys-Thr-Lys(DOTA)-Mpa-Phe-4Cfp-Hyp-Ile-Nva-Cys]-NH2] (Butoxycarbonyl-CTK(DOTA)[3Pal]F[Pro(cis-4-F)][Hyp]I[Nva]C-NH2; disulfide 1-10)
IC50 [1]: ≤ 10 nM | Kd (human uPAR (uPAR-Fc)): < 1.58 nM

Structure (SMILES): CC[C@H](C)[C@@H]1NC(=O)[C@@H](C)NC(=O)[C@@H]2CCCN2C(=O)[C@H](Cc2ccccc2)NC(=O)[C@H](Cc2ccc(O)cc2)NC(=O)[C@H](CCC(N)=O)NC(=O)[C@H](C)NC(=O)[C@@H](NC(=O)CCC(C)C)CSSC[C@@H](C(N)=O)NC(=O)[C@H](CC(C)C)NC1=O [UPAR-168, iHex-[Cys-Ala-Gln-Tyr-Phe-Pro-ala-Ile-Leu-Cys]-NH2] ({Pentanoyl(4-Me)}-CAQYFP[dA]ILC-NH2; disulfide 1-10)
IC50 [1]: ≤ 10 nM | Kd (human uPAR (uPAR-Fc)): < 1.58 nM

Structure (SMILES): CCCCC(=O)N[C@H]1CSSC[C@@H](C(N)=O)NC(=O)[C@H](CCC)NC(=O)[C@H]([C@@H](C)CC)NC(=O)[C@H](CCCCN)N(C)C(=O)[C@@H]2CCCN2C(=O)[C@H](Cc2ccccc2)NC(=O)[C@H](Cc2ccc(O)cc2)NC(=O)[C@H](CCCCNC(=O)CN2CCN(CC(=O)O)CCN(CC(=O)O)CCN(CC(=O)O)CC2)NC(=O)[C@H](CCCNC(N)=O)NC1=O [UPAR-173, Pent-[Cys-Cit-Lys(DOTA)-Tyr-Phe-Pro-Nmk-Ile-Nva-Cys]-NH2] (Pentanoyl-C[Cit]K(DOTA)YFP[NMeK]I[Nva]C-NH2; disulfide 1-10)
IC50 [1]: ≥ 126 nM | Kd (human uPAR (uPAR-Fc)): > 100 nM

Structure (SMILES): CCCCC(=O)N[C@H]1CSSC[C@@H](C(N)=O)NC(=O)[C@H](CCC)NC(=O)[C@H]([C@@H](C)CC)NC(=O)CN(C)C(=O)[C@@H]2CCCN2C(=O)[C@H](Cc2ccccc2)NC(=O)[C@H](Cc2ccc(O)cc2)NC(=O)[C@H](CCCCNC(=O)CN2CCN(CC(=O)O)CCN(CC(=O)O)CCN(CC(=O)O)CC2)NC(=O)[C@H](CCCNC(N)=O)NC1=O [UPAR-177, Pent-[Cys-Cit-Lys(DOTA)-Tyr-Phe-Pro-Nmg-Ile-Nva-Cys]-NH2] (Pentanoyl-C[Cit]K(DOTA)YFP[Sar]I[Nva]C-NH2; disulfide 1-10)
IC50 [1]: ≤ 10 nM | Kd (human uPAR (uPAR-Fc)): 1.58 to 10 nM
